Reference: patent US4973675A, “Hybrid nitrosoureidoanthracyclines having antitumor activity” (University of Tennessee Research Center, priority 1989, dated 1990)
Where “and” joins values, the source holds several entries; their conditions need not be identical. Identical values can stand only once. Entries after “also recorded” stand apart in the source; their conditions may differ. Like-named read-outs stand apart in the source and are kept apart here.

Columns and labels:
human CLL lymphocytes = assay: DNA alkaline elution filter assay, DNA damage in human CLL lymphocytes; type: cell-based
From the text: (§1) By means of the DNA alkaline elution filter assay technique, it is possible to assess the nature of damage induced in DNA by exposure to drugs and other agents. Depending on the assay conditions, DNA lesions can be quantified as direct strand breaks, DNA-DNA interstrand crosslinks, and protein-associated strand breaks and crosslinks. The action of akylating-type drugs on DNA typically results in a predominant formation of direct DNA single-strand breaks and DNA-DNA crosslinks. DNA intercalating agents show a preponderance of protein-associated DNA damage, detectable as protein-associated single-strand breaks and DNA-protein crosslinks.
(§2) The nature of nitrosoureidoanthracycline-induced DNA damage in murine L1210 and human CLL lymphocytes was assessed by means of the alkaline elution filter technique. Murine L1210 leukemic lymphocytes, like P388/S lymphocytes, are known to contain high levels of topoisomerase II.
(§3) *All concentrations 1 μM, 1hr incubation. Each entry represents the
(§4) mean of at least two experiments, frequency per 10^6 nucleotides;
(§5) statistically significant increase above background underlined. DB, direc
(§6) (nonenzymatic) DNA breaks; PAB, proteinassociated DNA cleavage; DDCL,
(§7) interstrand DNA crosslinks; DPCL, DNAprotein crosslinks.
B-cell type lymphocytes freshly obtained from patients with chronic lymphocytic leukemia (CLL) show undetectable levels of topoisomerase II.

[1] = system: murine P388/adriamycin-resistant leukemia; settings: Johnson et al. (1976); cited from earlier work
[2] = system: plasmid PC15 supercoiled DNA; assay: DNA unwinding assay (interference with DNA topoisomerase I-mediated unwinding; drug-DNA intercalation); type: biochemical; settings: for relative strength of drug-DNA intercalation (arbitrary scale): 0 = no intercalation, 9 = very strong intercalation
From the text: DNA unwinding assays were used to measure the ability of a test drug to interfere with DNA topoisomerase I-mediated unwinding of plasmid PC15 supercoiled DNA. DNA topoisomerase I controls the topology of double-stranded DNA and is itself not inhibited by DNA intercalating agents. Rather, intercalating agents cause distortion of the torsional angle between adjacent DNA strand components and thereby interfere with the ability of topoisomerase I to convert supercoiled DNA into relaxed forms. Accordingly, this assay is taken as the definitive test of drug-DNA intercalation.
Drugs were tested at 4 concentrations over a 125-fold concentration range. […] These compounds are 2-chloroethylurea derivatives of daunorubicin and adriamycin, respectively (i.e. not nitrosoureas, but chemical intermediates from which the nitrosoureas were derived).

murine L1210 lymphocytes = assay: DNA alkaline elution filter assay, DNA damage in murine L1210 lymphocytes; type: cell-based
From the text: as §1, §2, §3, §4, §5, §6, §7

[3] = system: murine P388/adriamycin-resistant leukemia; assay: In vivo antitumor activity vs. murine P388/adriamycin-resistant leukemia (P388/ADR); settings: for increase in life span: P388/ADR in vivo, lack of response confirmed
From the text: (§9) Assays were run essentially according to the established protocols of the U.S. National Cancer Institute (Geran et al., 1972 "Protocols for Screening Chemical Agents and Natural Products Against Animal Tumors and Other Biological Systems" (3rd Ed.), Cancer Chemotherapy Rep. [3]33, 1-103.), with the test agent given at 3-5 incremental dose levels in each screening experiment and with median survival of treated groups referenced against data for untreated controls.
(§10) *B6D2F1 males; 1 × 10^6 tumor cell inoculum ip day 0; treatment

[4] = system: murine L1210 leukemia cells; assay: Clonogenic assay with cultured murine L1210 leukemia cells, 1 h drug exposure (LD90); type: cell-based; settings: Mus musculus, L1210; 1 hr drug exposure; read-out: L1210 LD90 (dose killing 90% of clonogens)
Experimental: (§8) Culture and bioassay conditions were as described in Cancer Chemotherapy Pharmacology 20:277 (1987) "Comparative Effects of Adriamycin and DNA-nonbinding Analogues on DNA, RNA, and Protein Synthesis in Vitro", Israel et al., except that cell counts were determined by hemocytometer rather than by automated cell counting.
+Dose killing 90% of clonogens, 1hr. drug exposure.

[5] = system: human CEM leukemic lymphocytes; assay: Growth inhibition of human CEM leukemic lymphocyte suspension cultures, 48 h continuous drug exposure (ID50); type: cell-based; settings: Homo sapiens, Lymphocyte; suspension culture, 48 hr continuous drug exposure (Table 3); read-out: CEM, ID50 (50% growth-inhibitory concentration)
Experimental: as §8

murine P388 leukemia = settings: this protocol, cited from earlier work
DNA topoisomerase II = assay: Drug-stimulated topoisomerase II-mediated DNA cleavage assay (end-labeled PMC41 DNA); type: biochemical
From the text: FIGS. 5A and 5B are a photographic reproduction of the results of drug-stimulated topoisomerase II-mediated DNA cleavage assays performed on various compounds, including compounds of the present invention.
DNA intercalation is a necessary but not a sufficient requirement for DNA topoisomerase II-mediated DNA cleavage. Accordingly, determination of drug-induced enzyme inhibition requires direct assay with isolated topoisomerase II. These assays involve determination of drug-enhanced topoisomerase II-mediated cleavage of PMC41 DNA appropriately end-labeled with [α-^32 P]dATP. As better seen in FIG. 5B, lane B, purified topoisomerase II, under the assay conditions, causes fragmentation of the DNA (background cleavage), as indicated by the radioautographic appearance of bands of cleaved DNA having differing mass values.

[6] = system: murine P388/adriamycin-resistant leukemia; settings: mouse, in vivo, ip
From the text: as §9, §10

[7] = CLL, 1 μM, 1 hr incubation, 0 hr after treatment
[8] = L1210, 1 μM, 1 hr incubation, 0 hr after treatment

Q: With COc1cccc2c1C(=O)c1c(O)c3c(c(O)c1C2=O)C[C@@](O)(C(=O)CO)C[C@@H]3O[C@H]1C[C@H](N)[C@H](O)[C@H](C)O1 [Adriamycin, adriamycin, reference compound] as the molecule, how does the “pattern of DNA damage” value (human CLL lymphocytes; CLL B-cell lymphocytes) read?
A: cannot be detected in these cells to any significant level

Q: And the “DB, direct (nonenzymatic) DNA breaks” value (human CLL lymphocytes; [7])?
A: 0.1 frequency per 10^6 nucleotides

Q: What about the “DD-CL, interstrand DNA crosslinks” value (human CLL lymphocytes; [7]) of the same molecule?
A: 0.0 frequency per 10^6 nucleotides

Q: And the “DP-CL, DNA-protein crosslinks” value (human CLL lymphocytes; [7])?
A: 0.1 frequency per 10^6 nucleotides

Q: What about the “PAB, protein-associated DNA cleavage” value (human CLL lymphocytes; [7]) of the same molecule?
A: 0.1 frequency per 10^6 nucleotides

Q: What about the “in vivo sensitivity of P388/ADR” value [1] of the same molecule?
A: insensitive to adriamycin in vivo

Q: And the “relative strength of drug-DNA intercalation (arbitrary scale)” value [2]?
A: 7

Q: And the “interference with topoisomerase I-mediated conversion of supercoiled DNA / intercalation” value ([2]; 4 concentrations, 125-fold range)?
A: concentration-dependent ability to interfere with the conversion of supercoiled DNA to relaxed forms; also recorded: ability of increasing concentrations of adriamycin (positive control) to interfere with the conversion of supercoiled DNA to relaxed forms

Q: What about the “pattern of DNA damage” value (murine L1210 lymphocytes; L1210) of the same molecule?
A: significant amounts of protein-associated single-strand breaks, without producing much in the way of direct strand breaks and DNA-DNA interstrand cross-links

Q: And the “DB, direct (nonenzymatic) DNA breaks” value (murine L1210 lymphocytes; [8])?
A: -0.1 frequency per 10^6 nucleotides

Q: What about the “DD-CL, interstrand DNA crosslinks” value (murine L1210 lymphocytes; [8]) of the same molecule?
A: 0.1 frequency per 10^6 nucleotides

Q: What about the “increase in life span” value [3] of the same molecule?
A: 0%

Q: And the IC90 [4]?
A: 310 nM

Q: And the IC50 [5]?
A: 55 nM

Q: And the “longterm survivors, historical results” value (murine P388 leukemia; optimal dose 3.0 mg/kg)?
A: infrequent longterm survivors

Q: And the “enhancement of topoisomerase II-mediated DNA cleavage” value (DNA topoisomerase II; 625-fold concentration range)?
A: at low concentrations adriamycin enhances DNA fragmentation

Q: And the “concentration at which background cleavage is eliminated” value (DNA topoisomerase II; and higher)?
A: ≥ 4.6 μM and ≥ 2.5 μg/ml

Q: For COc1cccc2c1C(=O)c1c(O)c3c(c(O)c1C2=O)C[C@@](O)(C(C)=O)C[C@@H]3O[C@H]1C[C@H](N)[C@H](O)[C@H](C)O1 [Daunorubicin, daunorubicin], which “Net mean percent weight change, day 7” value ([6]; 2 mg/kg) is on record?
A: -0.5%

Q: And the “Net mean percent weight change, day 7” value ([6]; 3 mg/kg)?
A: -7%

Q: And the “Net mean percent weight change, day 7” value ([6]; 4 mg/kg)?
A: -7%

Q: What about the “Net mean percent weight change, day 7” value ([6]; 12 mg/kg) of the same molecule?
A: -13%

Q: What about the “Net mean percent weight change, day 7” value ([6]; 15 mg/kg) of the same molecule?
A: -13%

Q: And the “Net mean percent weight change, day 7” value ([6]; 18 mg/kg)?
A: -28%

Q: What about the “in vivo sensitivity of P388/ADR” value [1] of the same molecule?
A: cross-resistant to daunorubicin

Q: What about the “relative strength of drug-DNA intercalation (arbitrary scale)” value [2] of the same molecule?
A: 7

Q: What about the “toxicity flag” value ([3]; 18.0 mg/kg, d1 only) of the same molecule?
A: Toxic

Q: And the “increase in life span” value [3]?
A: 0%

Q: And the Long-term survivors ([3]; ip, 1.0 mg/kg qd 1-4)?
A: 0/6

Q: And the “Median increase in lifespan” value ([3]; ip, 1.0 mg/kg qd 1-4)?
A: +9%

Q: What about the Median survival ([3]; ip, 1.0 mg/kg qd 1-4) of the same molecule?
A: 12 days

Q: And the “Net mean percent weight change, day 7” value ([3]; ip, 1.0 mg/kg qd 1-4)?
A: +20%

Q: And the “Range of death (dying animals)” value ([3]; ip, 1.0 mg/kg qd 1-4)?
A: 11 to 12 days

Q: What about the Long-term survivors ([3]; ip, 2.0 mg/kg qd 1-4) of the same molecule?
A: 0/7

Q: What about the “Median increase in lifespan” value ([3]; ip, 2.0 mg/kg qd 1-4) of the same molecule?
A: 0%

Q: And the Median survival ([3]; ip, 2.0 mg/kg qd 1-4)?
A: 11 days

Q: What about the “Range of death (dying animals)” value ([3]; ip, 2.0 mg/kg qd 1-4) of the same molecule?
A: 11 to 12 days

Q: And the Long-term survivors ([3]; ip, 3.0 mg/kg qd 1-4)?
A: 0/7

Q: And the “Median increase in lifespan” value ([3]; ip, 3.0 mg/kg qd 1-4)?
A: 0%

Q: What about the Median survival ([3]; ip, 3.0 mg/kg qd 1-4) of the same molecule?
A: 11 days

Q: And the “Range of death (dying animals)” value ([3]; ip, 3.0 mg/kg qd 1-4)?
A: 10 to 12 days

Q: What about the Long-term survivors ([3]; ip, 4.0 mg/kg qd 1-4) of the same molecule?
A: 0/7

Q: What about the “Median increase in lifespan” value ([3]; ip, 4.0 mg/kg qd 1-4) of the same molecule?
A: -9%

Q: And the Median survival ([3]; ip, 4.0 mg/kg qd 1-4)?
A: 10 days

Q: What about the “Range of death (dying animals)” value ([3]; ip, 4.0 mg/kg qd 1-4) of the same molecule?
A: 9 to 12 days

Q: And the Long-term survivors ([3]; ip, 12.0 mg/kg d1 only)?
A: 0/7

Q: And the “Median increase in lifespan” value ([3]; ip, 12.0 mg/kg d1 only)?
A: 0%

Q: And the Median survival ([3]; ip, 12.0 mg/kg d1 only)?
A: 10 days

Q: And the “Range of death (dying animals)” value ([3]; ip, 12.0 mg/kg d1 only)?
A: 9 to 11 days

Q: And the Long-term survivors ([3]; ip, 15.0 mg/kg d1 only)?
A: 0/7

Q: And the “Median increase in lifespan” value ([3]; ip, 15.0 mg/kg d1 only)?
A: 0%

Q: What about the Median survival ([3]; ip, 15.0 mg/kg d1 only) of the same molecule?
A: 10 days

Q: And the “Range of death (dying animals)” value ([3]; ip, 15.0 mg/kg d1 only)?
A: 8 to 11 days

Q: What about the Long-term survivors ([3]; ip, 18.0 mg/kg d1 only) of the same molecule?
A: 0/7

Q: And the Median survival ([3]; ip, 18.0 mg/kg d1 only)?
A: 8 days

Q: What about the “Range of death (dying animals)” value ([3]; ip, 18.0 mg/kg d1 only) of the same molecule?
A: 6 to 9 days

Q: What about the “Median increase in lifespan” value ([3]; ip, 18.0 mg/kg d1 only, ** Toxic) of the same molecule?
A: -20%

Q: And the IC90 [4]?
A: 900 nM

Q: And the IC50 [5]?
A: 30 nM

Q: What about the “ILS, historical results” value (murine P388 leukemia; optimal dose 2.0 mg/kg) of the same molecule?
A: +75 - +100%

Q: And the “longterm survivors, historical results” value (murine P388 leukemia; optimal dose 2.0 mg/kg)?
A: no longterm survivors
